Where “and” joins values, the source holds several entries; their conditions need not be identical. Identical values can stand only once.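 A five-concentration, 48-hour dose response in 96-well plates underlies each endpoint, interpolated linearly between surrounding concentrations. Here, GI50 denotes the concentration required for 50% inhibition of growth. TGI denotes the concentration required for complete inhibition of growth.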
What was measured:
Test in all cases: DTP human tumour cell line panel, 48 h
[1] = tested on: HCT-15 colon
[2] = tested on: OVCAR-3 ovarian
[3] = tested on: SK-MEL-2 melanoma
[4] = tested on: LOX IMVI melanoma
[5] = tested on: TK-10 renal
[6] = tested on: HL-60(TB) leukemia
[7] = tested on: NCI-H23 lung
[8] = tested on: MOLT-4 leukemia
[9] = tested on: SF-539 CNS
[10] = tested on: OVCAR-4 ovarian
[11] = tested on: HOP-92 NSCLC

SMILES | TGI [1] [µM] | TGI [2] [µM] | GI50 [3] | TGI [3] [µM] | TGI [4] [µM] | TGI [5] [µM] | GI50 [6] | TGI [6] [µM] | TGI [7] [µM] | GI50 [8] | TGI [8] [µM] | TGI [9] [µM] | TGI [10] [µM] | TGI [11] [µM]
CC(=O)OC1COC(n2c(N)c(C#N)c(C)c(C#N)c2=S)C(OC(C)=O)C1OC(C)=O (stereo not drawn) | > 100 | > 100 | > 100 µM and 26 µM | > 100 | > 100 | > 100 | > 100 µM and 36.6 µM | > 100 | > 100 | > 100 µM and 43.2 µM | > 100 | > 100 |  | 
CC(C)CC1c2[nH]c3ccccc3c2C[C@H]2C(=O)NC(CCC(=O)OC(C)(C)C)C(=O)N12 (stereo partly drawn) | > 100 | 41.7 |  | 43.8 | 60.6 | 74 |  | 55.2 | > 100 |  | 72.8 |  | > 100 | 78.1
C[C@]12CC(c3ccccc3O1)C(C(=O)NC13CC4CC(CC(C4)C1)C3)C(=O)N2 (stereo partly drawn) | 60.8 | > 100 |  | 43 | 57.9 | > 100 |  |  | 61.9 |  | 36.7 |  | > 100 | 55.8
N=C1C(=N)c2ccccc2-c2ccccc21 | 2.99 | 1.41 |  | 2.97 | 1.02 | 3.01 |  | 0.658 | 1.92 |  | 1.61 | 2.02 | 2.78 | 
N#CS/C(Cl)=C(/C(Cl)=C(Cl)Cl)[N+](=O)[O-] | 45.9 | 48.9 |  |  | 39.8 | > 100 |  | > 100 | > 100 |  | 64.9 | > 100 | > 100 | 
CC(=O)Nc1ccc2c(C)c3c4ccccc4n(C)c3nc2n1 | 48.6 | 70.1 |  | 47.6 | 34.2 | 94.8 |  | 41.2 | 53.4 |  | 32.1 | 77.6 |  | 
COc1cc2[nH]c(-c3cccc(N(C)C)c3)cc(=O)c2cc1OC | > 64.6 |  |  |  | > 100 | > 100 |  | > 24.6 | > 100 |  | > 100 | > 21.3 | > 100 | > 100
CNC(=O)CCNC(=O)CCC(=O)OC |  | > 100 |  | > 100 |  | > 100 |  |  | > 100 |  | > 100 | > 100 | > 100 | 
COC12C=CC(CC1)C1C(=O)c3c(C)c(C)n(C)c3C(=O)C12 (stereo not drawn) | > 100 | > 100 |  | > 100 | > 100 | > 100 |  |  | > 100 |  | > 100 | > 100 |  | 
O=C1CCCc2cc3c(cc21)CCC3C(=O)O (stereo not drawn) | > 100 |  |  | > 100 | > 100 | > 100 |  | > 100 | > 100 |  | > 100 | > 100 | > 100 | 
Cc1ccc(S(=O)(=O)NNC(=S)Nc2cccc3ccccc23)cc1 | > 100 |  |  | > 100 |  | > 100 |  | > 100 | > 100 |  | > 100 | > 100 | 66.8 | 86
CNC(=O)c1n[nH][nH]c1=O | > 100 |  |  | > 100 | > 100 |  |  | > 100 | > 100 |  | > 100 |  |  | > 100
COC1OC(CO)C(O)C(OC(=O)c2cc(O)c(O)c(O)c2)C1OC(=O)c1cc(O)c(O)c(O)c1 (stereo not drawn) | > 100 | > 100 |  | > 100 | 68.2 | > 100 |  | > 100 | > 100 |  | > 100 | > 100 | 90.4 | 
NC1=NC(OCC2(CO)CCC2)C=C(NCC2(CO)CCC2)N1 (stereo not drawn) | > 100 | > 100 |  | > 100 | > 100 |  |  | > 100 | > 100 |  | > 100 |  | > 100 | > 100
CN(C)CCO/N=C1/C=C2CC[C@H]3[C@@H]4CC[C@H](O)[C@@]4(C)CC[C@@H]3[C@@]2(C)CC1 | 47.7 | 61 |  | 37.4 | 60.2 | 28.6 |  |  | 33.6 |  | > 36.3 | 13.2 |  | 23
COc1ccc2c3ccc4c(c3n(C)c2c1)C(=O)c1ccccc1C4=O | > 100 |  |  |  |  |  |  | > 100 | > 100 |  | > 100 | > 100 | > 100 | > 100
O=c1cc(-c2cccc(OC(F)(F)F)c2)[nH]c2cc3c(cc12)OCO3 | 2.66 | 3.92 |  | 0.628 |  | > 100 |  | 0.0315 | > 100 |  | > 100 | 0.204 |  | > 73.6
Cc1c2c(n(CCc3ccccc3)c1C)NN=C(C#N)S2(=O)=O | > 100 | > 100 |  | > 100 | > 100 | > 100 |  |  | > 100 |  | > 100 | > 100 | > 100 | 
CC1=NN(C(=O)Cc2ccccc2)C(=O)/C1=C\C=C\c1ccccc1 | > 100 | > 100 |  | > 100 | > 100 | > 100 |  | > 100 | > 100 |  | > 100 | > 100 | > 100 | 
CC(=O)O[C@H]1C(=O)[C@@]2(C)[C@H]([C@H](OC(=O)C3CCCCC3)[C@]3(O)C[C@H](OC(=O)[C@H](O)[C@@H](NC(=O)C4CCCCC4)C4CCCCC4)C(C)=C1C3(C)C)[C@]1(OC(C)=O)CO[C@@H]1C[C@@H]2O | 4.42 | 0.0355 |  |  | 5.03 | 1.3 |  |  | 0.438 |  | 4.18 | 0.766 | 11.8 | 4.72
COc1ccc(C2C(Cl)C(=O)N2NC(=O)Cc2ccccc2)cc1 (stereo not drawn) | > 100 | > 100 |  | > 100 | > 100 | > 100 |  | > 100 | > 100 |  | > 100 |  | > 100 | 
C=C[C@@]1(C)CC(=O)[C@]2(O)[C@@]3(C)[C@@H](OC(C)=O)CCC(C)(C)[C@@H]3[C@H](OC(C)=O)[C@H](OC(C)=O)[C@@]2(C)O1 | > 100 | > 100 |  | > 100 | > 100 |  |  |  | > 100 |  | > 100 | > 100 | > 100 | > 100
